Measurements taken from patent publication US20080319083A1, “MEDICINE FOR TRANSNASAL ADMINISTRATION” (priority 2006, published 2008).
Where a name gives a salt, the structure may show the parent alone. Read-outs that look alike come from different tables or passages of the source.

Experiments:
[1] = Transnasal administration experiment in closed system, plasma pharmacokinetics (Test Example 1)
Protocol: To 100 μL of plasma was added 300 μL of NH4Cl (pH 9), and the mixture was stirred for 30 seconds. Then, 500 μL of chloroform/2-isopropanol/n-heptane (60/14/26) was added, and the mixture was shaken for 2 minutes and centrifuged (4° C., 15,000 rpm, 5 min).
The chloroform layer (lower layer) obtained by centrifugation was transferred to another microtube, and the solvent was removed with flowing nitrogen. All the solvents were removed, and the extract was dissolved in 100 μL of a buffer used as a mobile phase for HPLC. Then, the solution was dispensed into a glass tube and injected to HPLC in an amount of 30 μL to measure the concentration of milnacipran hydrochloride.
The intravenous maximum plasma concentration (Cmax), maximum plasma concentration time (Tmax), area under the plasma concentration-time curve (AUC) and absorption ratio (F) were calculated. The area under the plasma concentration-time curve (AUC) was calculated from the trapezoid formula AUC represents an integrated value of the concentrations of plasma milnacipran absorbed and transferred to blood.
The obtained data was analyzed based on the nonlinear least-squares method program (algorithm: Damping Gauss-Newton method). AUC, MRT, MAT were derived from moment analysis. Meanwhile, the relative rate of the retention in the nasal cavity was evaluated by Formula (1) below.
A solution of urethane in isotonic sodium chloride solution (dosage 1.0 g/kg, 25 w/v %) was administered intraperitoneally to Wistar male rats, and the rats were anaesthetized: Each rat was fixed on a fixed base in a face-up position, and then the airway and esophagus surgeries was performed on the rat in according to the method of Hirai et. al (J. Pharm. Sci. 69:1411-1413 (1980)) to thereby expose the left and right jugular veins. The solution of milnacipran hydrochloride in isotonic sodium chloride solution was administered to the left the nasal cavity using a microsyringe, the top of which was attached to a silicone tube (dosage 20 mg/kg, concentration 100 mg/mL). Blood was corrected over time from the right jugular using a syringe previously treated with heparin. The blood samples were collected in an amount of 0.2 mL per injection, just 0 minute before transnasal administration, and 5, 10, 20, 30, 60, 90, 120, 180, 240, 300 and 360 minutes after the transnasal administration respectively. The collected blood samples were immediately centrifuged at 4° C. and 15,000 rpm (17,860 g) for 5 minutes, to thereby yield plasma samples (0.1 mL).

[2] = Transnasal administration experiment in opened system, plasma pharmacokinetics (Test Example 1); format: in vivo, Wistar male rats
Text: AUC, MRT, MAT were derived from moment analysis. […] Each rat was fixed in a face-up position on a fixed base, and the right jugular vein was exposed to insert a catheter. After the nib of the catheter was indwelled in the atrium dextrum, the opened regions of the right jugular vein was sutured together using the medical suture thread with an attached needle (17 mm, angle ½ black nylon 5-0, Matsuda Sutures). After the sufficient recovery period, each rat was used for experiments. To the rats with the jugular vein catheterization, prepared by the above-described “1. […] Blood was collected via catheter over time using an injection syringe previously treated with heparin. […] After recovering from diethylether anesthesia, the rats was placed in gauges.

in vivo = test: in vivo; design: species or system Wistar male rats; details: male, Wistar, rat, iv, 20 mg/kg
Protocol: Each rat was fixed in a face-up position on a fixed base, and the left and right jugular veins were exposed to collect blood. The rats underwent an operation of the airway and esophagus to adjust the physiological conditions to the same conditions as those of the intranasal administration test, and the above-prepared isotonic sodium chloride solution containing milnacipran hydrochloride (dosage 20 mg/kg, concentration 20 mg/mL) was administered from the right jugular vein, followed by collection of blood using an injection syringe previously treated with heparin with time in an amount of 200 μL per injection. […] The obtained data was analyzed based on the moment analysis to calculate the area under the plasma concentration-time curve (AUC), mean residence time (MRT), and mean absorption time (MAT). The cumulative absorption profile of milnacipran hydrochloride was calculated by the deconvolution method based on kinetic parameters determined from the intravenous administration test for an input function and based on plasma levels after intraduodenal or intranasal administration for an output function.

[3] = In vivo intranasal administration test of milnacipran hydrochloride (Test Example 2); design: species or system Wistar male rats
Protocol: Each rat was fixed in a face-up position on a fixed base and underwent an operation of the airway and esophagus to adjust the physiological conditions to the same conditions as those of the intravenous administration test, to thereby expose the left and right jugular veins. […] An injection syringe previously treated with heparin was used to collect blood from the right jugular vein over time.
The cumulative absorption profile of milnacipran hydrochloride was determined by the deconvolution method using kinetic parameters determined from the intravenous administration test as an input function and plasma levels after transnasal administration as an output function.

[4] = In vivo intravenous administration test of milnacipran hydrochloride (Test Example 2); design: species or system Wistar male rats
Text: Each rat was fixed in a face-up position on a fixed base and underwent an operation of the airway and esophagus, to thereby expose the left and right jugular veins. […]

[5] = In vivo intranasal administration test of milnacipran hydrochloride (Test Example 3); design: species or system Wistar male rats; details: i.n. 20 mg/kg
Protocol: Each rat was fixed in a face-up position on a fixed base, and the left and right jugular veins were exposed to collect blood. […] The time of intranasal administration was defined as 0 minutes, and blood samples were collected using an injection syringe previously treated with heparin with time in an amount of 200 μL per injection.
The obtained data was analyzed based on the moment analysis to calculate the area under the plasma concentration-time curve (AUC), mean residence time (MRT), and mean absorption time (MAT). The cumulative absorption profile of milnacipran hydrochloride was calculated by the deconvolution method based on kinetic parameters determined from the intravenous administration test for an input function and based on plasma levels after intraduodenal or intranasal administration for an output function.

[6] = In vivo intraduodenal administration test of milnacipran hydrochloride (Test Example 3); design: species or system Wistar male rats; details: rat
Protocol: Each rat was fixed in a face-up position on a fixed base, and the left and right jugular veins were exposed to collect blood. The abdominal cavity was incised to take the duodenum out, and the downstream portion of the duodenum was ligated, followed by direct administration of the above-prepared isotonic sodium chloride solution containing milnacipran hydrochloride (dosage 20 mg/kg, concentration 20 mg/mL) to the duodenum from the upstream portion. The time of duodenum administration was defined as 0 minutes, and blood samples were collected using an injection syringe previously treated with heparin with time in an amount of 200 μL per injection. […] The obtained data was analyzed based on the moment analysis to calculate the area under the plasma concentration-time curve (AUC), mean residence time (MRT), and mean absorption time (MAT). The cumulative absorption profile of milnacipran hydrochloride was calculated by the deconvolution method based on kinetic parameters determined from the intravenous administration test for an input function and based on plasma levels after intraduodenal or intranasal administration for an output function.

[7] = Evaluation of transfer of milnacipran hydrochloride to central nerve system, CSF concentration (Test Example 4); design: species or system Wistar male rats; details: in vivo
Protocol: As an indicator of transfer to the central nerve system, the concentration of a drug in a cerebrospinal fluid (CSF) was measured. The same operations and administrations as Test Example 3 (in vivo mucosal absorption experiment) were performed (n=3) for intravenous administration, intraduodenal administration, and intranasal administration. Then, blood was collected with time from the jugular vein, and after a given length of time, CSF was collected. An injection needle previously cut was adhered to a silicon tube to prepare an instrument, the other end of which was connected to a syringe, and after a given length of time following drug administration, a puncture was made ventrally from the top of the back of the head of a rat to a depth of 5 to 6 mm with the top of the injection needle. Then, the syringe was drawn to collect CSF in an amount of about 200 μL in the silicon tube.
The obtained data was analyzed based on the moment analysis to calculate the area under the cerebrospinal fluid concentration-time curve (AUCCSF). The AUCCSF represents an integrated value of concentrations of milnacipran in CFS, absorbed and transferred to the brain. Transfer of a drug from the general circulation to CSF is controlled by permeation through a blood-brain barrier and is greatly affected by the concentration of the drug in blood. Therefore, in order to consider the effect of permeation through a blood-brain barrier, brain transfer was evaluated by comparing ratios of the concentrations in CSF to the protein unbound drug concentration in plasma at the time of collection of CSF. Meanwhile, the brain transfer ratio (Kpu) was calculated from an area under the CSF concentration-time curve, an area under the plasma concentration-time curve, and a plasma protein unbinding ratio (following Formula 3). A significant test was performed based on the Tukey-Kramer multiple comparison. Note that AUCplasma represents an integrated value of the plasma concentrations of milnacipran absorbed and transferred to blood.

[8] = male, Wistar, rat, in vivo, inhaled or intranasal, 20 mg/kg
[9] = male, Wistar, in vivo, inhaled or intranasal, rat plasma, transnasal 20 mg/kg, opened system
[10] = male, Wistar, rat, in vivo, iv, 20 mg/kg
[11] = male, Wistar, in vivo, inhaled or intranasal, rat plasma
[12] = male, Wistar, in vivo, 20 mg/kg
[13] = male, Wistar, rat, iv, 20 mg/kg

## CCN(CC)C(=O)C1(c2ccccc2)CC1CN (racemic) [milnacipran hydrochloride, cis-(±)-2-(aminomethyl)-N,N-diethyl-1-phenyl-cyclopropanecarboxyamide]
[1]; [8]
  AUC(0-inf): 8400 ng·h/mL
  Cmax: 5120 ng/mL
  Tmax: 0.333 h
[1]; male, Wistar, rat, in vivo, inhaled or intranasal, 20 mg/kg, MRT∞, rat plasma, transnasal 20 mg/kg, closed system
  MRT inf: 1.88 h
[1]; rat plasma, transnasal 20 mg/kg, closed system, listed as Control
  MRT∞: 1.62 h
[1]; rat, transnasal 20 mg/kg, closed system, vs i.v. 20 mg/kg
  F∞: 84.9%
[2]; [9]
  AUC(0-inf): 6120 ng·h/mL
  Cmax: 3040 ng/mL
  MRT inf: 1.77 h
  Tmax: 0.333 h
[2]; male, Wistar, rat, in vivo
  Fo/Fc (relative rate of the retention in the nasal cavity): 72.8%
[2]; rat, transnasal 20 mg/kg, opened system
  F∞: 61.9%
In vivo
  AUC(0-inf): 9890 ng·h/mL
  MRT inf: 1.34 h
[3]; male, Wistar, in vivo, inhaled or intranasal, rat plasma, i.n. 10 mg/kg
  AUC(0-inf): 4770 ng·h/mL
[3]; male, Wistar, in vivo, inhaled or intranasal, rat plasma, i.n. 10 mg/kg, 0 to 7 hours, read-out: AUC0-7 (converted)
  AUC(0-t): 4380 ng·h/mL
[3]; male, Wistar, in vivo, rat plasma, i.n. 10 mg/kg
  Tmax: 0.333 h
[3]; male, Wistar, in vivo, rat plasma, i.n. 10 mg/kg, 50 mg/mL (Example 5)
  Cmax: 5270 ng/mL
[3]; rat, i.n. 10 mg/kg vs i.v. 20 mg/kg, 0 to 7 hours
  F0-7: 90.41%
[4]; [10]
  AUC(0-inf): 9680 ng·h/mL
  AUC(0-t): 9430 ng·h/mL
  Vd: 0.123 L
  clearance: 2.69 mL/min
[4]; rat plasma, i.v. 20 mg/kg
  B: 5580.51 ng/mL
  t1/2α: 6.221 min
  t1/2β: 1.0709 h
  α: 0.1114 min⁻¹
  β: 0.01079 min⁻¹
[4]; rat plasma, i.v. 20 mg/kg, two-compartment parameter
  A: 7085.09 ng/mL
[4]; rat, i.v. 20 mg/kg
  V1: 67.74 mL
  V2: 55.64 mL
  k10: 0.0218 min⁻¹
  k12: 0.0453 min⁻¹
  k21: 0.0551 min⁻¹
[5]; [11]
  AUC(0-inf): 8400 ng·h/mL
  Cmax: 5120 ng/mL
  MRT inf: 1.62 h
  Tmax: 0.333 h
[5]; rat
  F∞: 84.9%
[6]; [12]
  AUC(0-inf): 7000 ng·h/mL
  Cmax: 3070 ng/mL
  MRT inf: 1.89 h
  Tmax: 1 h
[6]; i.d. 20 mg/kg
  F∞: 70.8%
[7]; male, Wistar, inhaled or intranasal, rat CSF, i.n. 20 mg/kg, read-out: Cmax (maximum CSF concentration)
  Cmax: 4020 ng/mL
[7]; male, Wistar, inhaled or intranasal, rat CSF, i.n. 20 mg/kg, read-out: Tmax (time-to-maximum CSF concentration) (converted)
  Tmax: 0.333 h
[7]; male, Wistar, inhaled or intranasal, rat plasma, i.n. 20 mg/kg, read-out: AUCPlasma (converted)
  AUC: 8400 ng·h/mL
[7]; male, Wistar, rat, 20 mg/kg
  AUC: 7000 ng·h/mL
  Cmax: 1010 ng/mL
  Tmax: 1 h
  ratio of plasma concentration and CSF concentration: significantly increased up to 30 minutes after administration
[7]; [13]
  AUC: 9890 ng·h/mL
  AUCCSF: 13727.9 ng·min/mL
  Cmax: 2220 ng/mL
  Tmax: 0.167 h
[7]; male, Wistar, rat, iv, 20 mg/kg, Kpu (brain transfer ratio)
  Kp: 0.028
[7]; rat, 20 mg/kg
  CSF Cmax in intranasal administration relative to intraduodenal administration: four times larger than that in intraduodenal administration
  CSF Cmax in intranasal administration relative to intravenous administration: twice larger than that in intravenous administration
  ratio of plasma concentration and CSF concentration: almost constant
